Test results published in the Kinase Knowledgebase extract (Sharma et al. 2016).

Legend:
PIK3CG (human) = PIK3CG (human) (UniProt P48736); experiment: Assessment of PIK3CG Kinase Activity
PIK3CA (human) = PIK3CA (human) (UniProt P42336); experiment: Assessment of PIK3CA Kinase Activity
PIK3CD (Human) = PIK3CD (Human) (UniProt O00329); experiment: Assessment of PIK3CD Kinase Activity
PIK3CB (Human) = PIK3CB (Human) (UniProt P42338); experiment: Assessment of PIK3CB Kinase Activity
PIK3CB (Human), sequence (P42338 whole entry, looked up): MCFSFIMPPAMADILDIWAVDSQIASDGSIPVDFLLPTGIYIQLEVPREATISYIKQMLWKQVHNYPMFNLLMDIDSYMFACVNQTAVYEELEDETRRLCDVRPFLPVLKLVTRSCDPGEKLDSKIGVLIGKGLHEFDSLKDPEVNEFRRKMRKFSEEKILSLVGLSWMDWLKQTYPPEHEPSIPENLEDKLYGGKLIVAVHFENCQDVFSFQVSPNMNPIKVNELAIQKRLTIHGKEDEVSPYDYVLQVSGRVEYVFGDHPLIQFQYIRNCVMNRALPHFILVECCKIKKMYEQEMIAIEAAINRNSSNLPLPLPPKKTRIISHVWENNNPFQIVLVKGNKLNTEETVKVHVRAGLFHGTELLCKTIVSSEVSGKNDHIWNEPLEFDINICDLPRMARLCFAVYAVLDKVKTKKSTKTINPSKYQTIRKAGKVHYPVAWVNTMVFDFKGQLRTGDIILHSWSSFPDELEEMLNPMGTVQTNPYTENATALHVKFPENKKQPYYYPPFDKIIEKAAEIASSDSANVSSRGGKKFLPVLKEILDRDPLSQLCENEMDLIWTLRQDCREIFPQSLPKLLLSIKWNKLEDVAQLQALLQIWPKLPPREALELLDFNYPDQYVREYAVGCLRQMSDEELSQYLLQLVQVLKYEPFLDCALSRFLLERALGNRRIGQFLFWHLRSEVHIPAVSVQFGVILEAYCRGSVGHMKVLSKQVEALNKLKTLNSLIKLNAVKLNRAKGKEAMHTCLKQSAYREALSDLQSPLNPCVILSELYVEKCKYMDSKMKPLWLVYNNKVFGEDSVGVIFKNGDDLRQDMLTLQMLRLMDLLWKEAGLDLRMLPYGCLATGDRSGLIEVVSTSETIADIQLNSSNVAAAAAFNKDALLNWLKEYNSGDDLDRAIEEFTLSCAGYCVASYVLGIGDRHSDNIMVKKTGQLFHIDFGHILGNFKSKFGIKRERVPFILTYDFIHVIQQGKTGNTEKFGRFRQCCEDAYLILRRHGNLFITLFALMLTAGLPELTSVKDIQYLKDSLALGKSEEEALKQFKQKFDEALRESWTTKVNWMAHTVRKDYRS

PIK3CG (human), sequence (P48736 whole entry, looked up): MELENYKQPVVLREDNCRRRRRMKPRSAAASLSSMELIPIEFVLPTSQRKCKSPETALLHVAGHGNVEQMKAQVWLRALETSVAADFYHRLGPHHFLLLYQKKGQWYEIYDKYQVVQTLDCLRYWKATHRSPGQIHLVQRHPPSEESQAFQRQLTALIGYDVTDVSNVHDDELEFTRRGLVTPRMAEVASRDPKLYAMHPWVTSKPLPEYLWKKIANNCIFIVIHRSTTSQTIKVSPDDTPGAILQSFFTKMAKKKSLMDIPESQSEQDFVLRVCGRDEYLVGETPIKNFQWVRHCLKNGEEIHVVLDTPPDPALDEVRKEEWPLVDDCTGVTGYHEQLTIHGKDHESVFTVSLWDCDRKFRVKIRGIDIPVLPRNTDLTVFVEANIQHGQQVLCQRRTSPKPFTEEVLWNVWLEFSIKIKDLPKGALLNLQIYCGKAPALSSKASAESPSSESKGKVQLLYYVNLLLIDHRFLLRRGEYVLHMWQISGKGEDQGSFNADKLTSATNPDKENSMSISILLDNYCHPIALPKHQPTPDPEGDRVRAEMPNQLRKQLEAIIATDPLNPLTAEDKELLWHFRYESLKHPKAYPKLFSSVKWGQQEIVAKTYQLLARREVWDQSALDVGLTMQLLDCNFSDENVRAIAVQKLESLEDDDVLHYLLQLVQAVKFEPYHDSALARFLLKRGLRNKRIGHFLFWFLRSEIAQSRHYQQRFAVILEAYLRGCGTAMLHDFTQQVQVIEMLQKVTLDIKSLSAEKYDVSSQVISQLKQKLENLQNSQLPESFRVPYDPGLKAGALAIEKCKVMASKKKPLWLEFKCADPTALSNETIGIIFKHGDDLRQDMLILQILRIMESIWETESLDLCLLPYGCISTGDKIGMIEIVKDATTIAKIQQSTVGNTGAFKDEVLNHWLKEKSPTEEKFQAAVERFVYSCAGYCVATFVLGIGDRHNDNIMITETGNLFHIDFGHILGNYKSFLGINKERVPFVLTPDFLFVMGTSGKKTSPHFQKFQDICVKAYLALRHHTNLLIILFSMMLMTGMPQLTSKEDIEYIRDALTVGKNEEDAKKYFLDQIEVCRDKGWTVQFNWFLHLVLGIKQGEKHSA
PIK3CA (human), sequence (P42336 whole entry, looked up): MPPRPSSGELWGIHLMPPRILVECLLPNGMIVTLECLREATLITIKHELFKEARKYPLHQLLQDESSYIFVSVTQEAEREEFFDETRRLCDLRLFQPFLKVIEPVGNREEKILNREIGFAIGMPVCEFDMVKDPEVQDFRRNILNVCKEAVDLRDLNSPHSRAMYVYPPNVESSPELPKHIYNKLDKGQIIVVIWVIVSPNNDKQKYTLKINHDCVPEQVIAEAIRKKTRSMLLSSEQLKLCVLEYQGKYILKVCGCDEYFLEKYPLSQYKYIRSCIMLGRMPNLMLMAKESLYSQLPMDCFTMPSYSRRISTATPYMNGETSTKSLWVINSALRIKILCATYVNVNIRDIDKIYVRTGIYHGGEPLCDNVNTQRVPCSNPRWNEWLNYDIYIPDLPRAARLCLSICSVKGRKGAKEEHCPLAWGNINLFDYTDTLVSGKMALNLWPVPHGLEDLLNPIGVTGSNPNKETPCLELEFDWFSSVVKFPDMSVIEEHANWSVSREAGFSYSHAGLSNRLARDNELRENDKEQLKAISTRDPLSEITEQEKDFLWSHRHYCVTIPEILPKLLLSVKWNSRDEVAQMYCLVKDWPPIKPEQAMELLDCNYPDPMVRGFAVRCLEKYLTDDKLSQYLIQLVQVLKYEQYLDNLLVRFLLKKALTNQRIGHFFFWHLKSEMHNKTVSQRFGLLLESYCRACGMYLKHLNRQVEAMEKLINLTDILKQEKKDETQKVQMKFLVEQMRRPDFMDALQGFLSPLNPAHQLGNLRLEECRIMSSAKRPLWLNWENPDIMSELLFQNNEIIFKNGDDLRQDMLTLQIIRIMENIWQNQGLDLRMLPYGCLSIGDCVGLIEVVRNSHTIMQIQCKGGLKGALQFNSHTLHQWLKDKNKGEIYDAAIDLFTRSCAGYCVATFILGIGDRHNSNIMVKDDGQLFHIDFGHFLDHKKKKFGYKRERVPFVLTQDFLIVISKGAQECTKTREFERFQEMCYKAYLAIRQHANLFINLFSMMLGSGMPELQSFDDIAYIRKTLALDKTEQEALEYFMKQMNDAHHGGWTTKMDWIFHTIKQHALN
PIK3CD (Human), sequence (O00329 whole entry, looked up): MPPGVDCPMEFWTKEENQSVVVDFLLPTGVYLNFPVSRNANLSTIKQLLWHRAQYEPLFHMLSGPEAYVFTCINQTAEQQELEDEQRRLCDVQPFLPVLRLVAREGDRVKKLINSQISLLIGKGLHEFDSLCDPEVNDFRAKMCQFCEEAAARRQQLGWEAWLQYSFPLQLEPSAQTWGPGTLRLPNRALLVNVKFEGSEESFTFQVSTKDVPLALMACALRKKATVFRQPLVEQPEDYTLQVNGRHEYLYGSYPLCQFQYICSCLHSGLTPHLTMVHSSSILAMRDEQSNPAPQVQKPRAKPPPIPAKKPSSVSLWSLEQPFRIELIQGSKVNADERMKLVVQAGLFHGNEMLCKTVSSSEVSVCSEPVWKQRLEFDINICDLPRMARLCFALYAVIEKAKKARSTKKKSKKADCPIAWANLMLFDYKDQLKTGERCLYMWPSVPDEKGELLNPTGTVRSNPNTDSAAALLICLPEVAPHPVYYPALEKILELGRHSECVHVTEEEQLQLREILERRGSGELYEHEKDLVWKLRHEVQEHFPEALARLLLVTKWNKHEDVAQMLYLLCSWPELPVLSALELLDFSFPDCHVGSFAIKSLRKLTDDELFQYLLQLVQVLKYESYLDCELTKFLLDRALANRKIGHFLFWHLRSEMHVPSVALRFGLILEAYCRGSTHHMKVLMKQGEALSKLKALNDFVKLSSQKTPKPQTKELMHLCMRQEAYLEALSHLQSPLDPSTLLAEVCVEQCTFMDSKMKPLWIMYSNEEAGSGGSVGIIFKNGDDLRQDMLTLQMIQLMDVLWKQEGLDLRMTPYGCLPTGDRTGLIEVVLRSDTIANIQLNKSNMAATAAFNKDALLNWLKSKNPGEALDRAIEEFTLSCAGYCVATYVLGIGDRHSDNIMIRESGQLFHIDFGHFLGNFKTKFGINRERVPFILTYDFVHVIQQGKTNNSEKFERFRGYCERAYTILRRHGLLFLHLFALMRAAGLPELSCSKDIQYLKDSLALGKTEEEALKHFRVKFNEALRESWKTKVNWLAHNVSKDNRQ

Structure (SMILES) | IC50 (PIK3CG (human)) [nM] | IC50 (PIK3CA (human)) [nM] | IC50 (PIK3CD (Human)) [nM] | IC50 (PIK3CB (Human)) [nM]
C[C@H](Nc1ncc(C(F)(F)F)c(N)n1)c1cc2cccc(Cl)c2c(CCN2CCOCC2)n1 | > 10000 | > 10000 | > 10000 | > 10000
CCOC(=O)c1cnc(N[C@@H](C)c2cc3cccc(-c4ccnc(OC)c4)c3c(=O)n2-c2ccccc2)nc1N | > 10000 | > 10000 | > 10000 | > 10000
C[C@H](Nc1ncnc2cc(F)ccc12)c1cc2cccc(Cl)c2c(=O)n1-c1ccccc1 | > 10000 | > 10000 | > 10000 | > 10000
C[C@H](Nc1ncnc2cc(F)c(F)cc12)c1cc2cccc(Cl)c2c(=O)n1-c1ccccc1 | > 10000 | > 10000 | > 10000 | > 10000
COc1nc(N[C@@H](C)c2cc3cccc(Cl)c3c(=O)n2-c2ccccc2)c2ncccc2n1 | > 10000 | > 10000 | > 10000 | > 10000
C[C@@H](c1cc2cccc(Cl)c2c(=O)n1-c1ccccc1)n1c(=O)[nH]c2cnc(N)nc21 | > 10000 | > 10000 | > 10000 | > 10000
C[C@H](Nc1ncnc2cnccc12)c1cc2cccc(Cl)c2c(=O)n1-c1ccccc1 | > 10000 | > 10000 | > 10000 | > 10000
COc1ncc(-c2cccc3cc([C@H](C)Nc4nc(OC)nc5cccnc45)n(-c4ccccc4)c(=O)c23)cn1 | > 10000 | > 10000 | > 10000 | > 10000
C[C@H](Nc1nc(O)nc2cccnc12)c1cc2cccc(C(F)(F)F)c2c(=O)n1-c1cccc(F)c1 | > 10000 | > 10000 | > 10000 | > 10000
C[C@H](NCc1cccnc1N)c1cc2cccc(Cl)c2c(=O)n1-c1ccccc1 | > 10000 | > 10000 | > 10000 | > 10000
C[C@H](Nc1nc(Cl)nc2cccnc12)c1cc2cccc(-c3cnn(C)c3)c2c(=O)n1-c1cccc(F)c1 | 100 to 1000 | > 10000 | 100 to 1000 | > 10000
C[C@H](Nc1ncnc2cccnc12)c1cc2cccc(Cl)c2c(=O)n1CCN1CCCC1 | 100 to 1000 | > 10000 | < 100 | 100 to 1000
C[C@H](Nc1ncnn2cncc12)c1cc2cccc(Cl)c2c(=O)n1-c1cccc(F)c1 | > 10000 | > 10000 | – | > 10000
C[C@H](Nc1nccc2nccn12)c1cc2cccc(Cl)c2c(=O)n1-c1ccccc1 | > 10000 | > 10000 | > 10000 | > 10000
COc1ncc(-c2cccc3cc([C@H](C)Nc4ccnc5ccnn45)n(-c4ccccc4)c(=O)c23)cn1 | 100 to 1000 | > 10000 | < 100 | > 10000
C[C@H](Nc1ccn2nccc2n1)c1cc2cccc(Cl)c2c(=O)n1-c1ccccc1 | > 10000 | > 10000 | > 10000 | > 10000
C[C@H](Nc1nc(Cl)ns1)c1cc2cccc(Cl)c2c(=O)n1-c1ccccc1 | > 10000 | > 10000 | > 10000 | > 10000
CNc1nc(N[C@@H](C)c2cc3cccc(-c4cnc(C)nc4)c3c(=O)n2-c2ccccc2)c2ncccc2n1 | 100 to 1000 | > 10000 | 100 to 1000 | > 10000
COc1ncc(-c2cccc3cc([C@H](C)Nc4cc(N)nc5ccnn45)n(-c4ccccc4)c(=O)c23)cn1 | 100 to 1000 | > 10000 | < 100 | > 10000
COc1ncc(-c2cccc3cc([C@H](C)Nc4cc(O)nc5cccnc45)n(-c4ccccc4)c(=O)c23)cn1 | > 10000 | > 10000 | – | > 10000
COc1ncc(-c2cccc3cc([C@H](C)Nc4nc(O)nc5cccnc45)n(-c4ccccc4)c(=O)c23)cn1 | > 10000 | > 10000 | > 10000 | > 10000
C[C@H](Nc1nc(Cl)nc2nc(Cl)cnc12)c1cc2cccc(Cl)c2c(=O)n1-c1ccccc1 | > 10000 | > 10000 | – | > 10000
C[C@H](Nc1nc(Cl)nc2cccnc12)c1cc2cccc(-c3cnn(C)c3)c2c(=O)n1C1CC1 | 100 to 1000 | > 10000 | 100 to 1000 | > 10000
C[C@H](Nc1nc(O)nc2[nH]cnc12)c1cc2cccc(C(F)(F)F)c2c(=O)n1-c1cccc(F)c1 | > 10000 | > 10000 | > 10000 | > 10000
C[C@H](Nc1ncnc2cccnc12)c1cc2cccc(C(=O)O)c2c(=O)n1-c1ccccc1 | 100 to 1000 | > 10000 | > 10000 | > 10000

Other lines, results leading:

IC50 (PIK3CG (human)) [nM] | IC50 (PIK3CA (human)) [nM] | IC50 (PIK3CD (Human)) [nM] | IC50 (PIK3CB (Human)) [nM] | Structure (SMILES)
< 100 | > 10000 | < 100 | > 10000 | COc1ncc(-c2cccc3cc([C@H](C)Nc4nc(N)nc5cccnc45)n(-c4cccc(F)c4)c(=O)c23)cn1
< 100 | 100 to 1000 | < 100 | 100 to 1000 | C[C@H](Nc1ncnc2cccnc12)c1cc2cccc(Cl)c2c(=O)n1-c1cccc(F)c1
< 100 | 100 to 1000 | < 100 | 100 to 1000 | C[C@H](Nc1ncnc2cccnc12)c1cc2ccc(F)c(Cl)c2c(=O)n1-c1ccccc1
< 100 | > 10000 | < 100 | > 10000 | C[C@H](Nc1ncnc(N)c1C#N)c1cc2cccc(C(F)(F)F)c2c(=O)n1-c1ccccc1
100 to 1000 | > 10000 | < 100 | > 10000 | CNc1nc(N[C@@H](C)c2cc3cccc(-c4cnc(OC)nc4)c3c(=O)n2-c2ccccc2)c2ncccc2n1
< 100 | 100 to 1000 | < 100 | > 10000 | COc1cncc(-c2cccc3cc([C@H](C)Nc4ncnc5cccnc45)n(-c4ccccc4)c(=O)c23)c1
100 to 1000 | > 10000 | 100 to 1000 | > 10000 | C[C@H](Nc1ccnc2ccnn12)c1cc2scc(-c3cnn(C)c3)c2c(=O)n1-c1ccccc1
100 to 1000 | > 10000 | 100 to 1000 | > 10000 | C[C@H](Nc1ccnn2ccnc12)c1cc2scc(-c3cnn(C)c3)c2c(=O)n1-c1ccccc1
< 100 | > 10000 | 100 to 1000 | > 10000 | CNc1cccc2cc([C@H](C)Nc3nc(N)nc4cccnc34)n(-c3ccccc3)c(=O)c12
< 100 | > 10000 | < 100 | > 10000 | COc1ncc(-c2cccc3cc([C@H](C)Nc4ncnc5cccnc45)n(-c4ccccc4)c(=O)c23)cn1
< 100 | 100 to 1000 | < 100 | < 100 | C[C@H](Nc1cc(N)ncc1C(N)=O)c1cc2cccc(Cl)c2c(=O)n1-c1ccccc1
100 to 1000 | > 10000 | 100 to 1000 | > 10000 | C[C@H](Nc1cc(Cl)nn2ccnc12)c1cc2cccc(-c3cnn(C)c3)c2c(=O)n1-c1cccc(F)c1
100 to 1000 | > 10000 | – | > 10000 | C[C@H](Nc1nc(N)nc2cccnc12)c1cc2cccc(N(C)C)c2c(=O)n1-c1ccccc1
< 100 | > 10000 | < 100 | 100 to 1000 | C[C@H](Nc1ncnc2[nH]cc(C#N)c12)c1cc2cccc(C(F)(F)F)c2c(=O)n1-c1ccccc1
< 100 | 100 to 1000 | < 100 | < 100 | C[C@H](Nc1nc(N)nc2cccnc12)c1cc2cccc(Cl)c2c(=O)n1-c1ccc(F)cc1
< 100 | > 10000 | 100 to 1000 | > 10000 | CNc1nc(N[C@@H](C)c2cc3cccc(NC)c3c(=O)n2-c2ccccc2)c2ncccc2n1
< 100 | 100 to 1000 | < 100 | 100 to 1000 | C[C@H](Nc1nc(N)nc2cccnc12)c1cc2cccc(-c3cnc4[nH]ccc4c3)c2c(=O)n1-c1ccccc1
< 100 | > 10000 | – | > 10000 | C[C@H](Nc1ncnc2cccnc12)c1cc2scc(-c3cnn(C)c3)c2c(=O)n1-c1ccccc1
< 100 | 100 to 1000 | < 100 | < 100 | C[C@H](Nc1nc(N)nc2[nH]cnc12)c1cc2cccc(C(F)(F)F)c2c(=O)n1-c1ccccc1
< 100 | 100 to 1000 | < 100 | < 100 | C[C@H](Nc1ncnc2scnc12)c1cc2cccc(C(F)(F)F)c2c(=O)n1-c1ccccc1
< 100 | > 10000 | < 100 | > 10000 | Cc1ncc(-c2cccc3cc([C@H](C)Nc4ncnc5cccnc45)n(-c4ccccc4)c(=O)c23)cn1
< 100 | 100 to 1000 | < 100 | < 100 | C[C@H](Nc1nc(N)nc2cccnc12)c1cc2cccc(Cl)c2c(=O)n1-c1ccccc1
< 100 | > 10000 | 100 to 1000 | > 10000 | C[C@H](Nc1nc(Cl)nc2cccnc12)c1cc2cccc(-c3cnn(C)c3)c2c(=O)n1-c1ccccc1
< 100 | 100 to 1000 | < 100 | < 100 | C[C@H](Nc1ccnn2ccnc12)c1cc2cccc(Cl)c2c(=O)n1-c1ccccc1
< 100 | 100 to 1000 | < 100 | < 100 | C[C@H](Nc1ncnc2cccnc12)c1cc2cccc(Cl)c2c(=O)n1C1CC1
< 100 | > 10000 | – | > 10000 | C[C@H](Nc1nc(Cl)nc2cccnc12)c1cc2cccc(Cl)c2c(=O)n1-c1ccccc1
< 100 | > 10000 | < 100 | > 10000 | Cc1ncc(-c2cccc3cc([C@H](C)Nc4nc(N)nc5cccnc45)n(-c4ccccc4)c(=O)c23)cn1
< 100 | 100 to 1000 | < 100 | 100 to 1000 | C[C@H](Nc1nc(N)nc2cccnc12)c1nc2cccc(Cl)c2c(=O)n1-c1ccccc1
